In BindingDB's records for doi:10.1111/j.1747-0285.2011.01199.x (Sanford-Burnham Medical Research Institute, 2011):

Target: T1, Ephrin type-A receptor 4 [1-949,A922V] (Homo sapiens, UniProt P54764, A922V)
T1 construct: 1-949
Test: Enzyme-linked Immunosorbent Assay
Conditions: pH 7.5
Description: Protein A-coasted wells (from Pierce Biotechnology) were used to immobilize Eph receptor Fc fusion proteins (from R&D systems)incubated at 1 ug/ml in TBST.

Structure (SMILES) | IC50
O=C(O)c1ccc(-c2ccc(O)c(C(=O)O)c2)o1 [Salicylic acid derivative, 76B8] | > 500 µM
O=C(O)/C=C/c1ccc(-c2ccc(O)c(C(=O)O)c2)o1 [Salicylic acid derivative, 76A5] | > 500 µM
Cc1ccc(C)n1-c1ccc(O)c(C(=O)O)c1 [Salicylic acid derivative, compound 2] | 10 µM
Cc1ccc(C)n1-c1ccc(C(=O)O)c(O)c1 [4-(2,5-dimethyl-1H-pyrrol-1-yl)-2-hydroxybenzoic acid] | 1.3 µM
O=C(/C=C/c1ccc(-c2ccc(O)c(C(=O)O)c2)o1)/C=C/c1ccc(-c2ccc(O)c(C(=O)O)c2)o1 [Salicylic acid derivative, 76D10] | 2.6 µM
